Measurements: US5039665A, “Use of fructose-1,6-diphosphate for treating myocardial infarction” (priority 1990, dated 1991)
Values joined by “and” are separate entries in the source; they are usually repeats but may differ in a detail not shown here. Equal entries are not always repeated.

Columns and labels:
[1] = system: blood; test: blood preservation: ATP content of refrigerated blood, 25, 50 and 100 mg per 10 ml; design: species or system dog
Protocol: The tests were also conducted under the conditions when 25mg, 50mg, and 100mg of FDP were mixed with 10ml of blood and 25mg, 50mg, and 100mg, of glucose were mixed with 10ml of blood. […]

[2] = system: erythrocytes; test: incubation of erythrocytes: ATP and 2-3 DPG content; assay type: cell-based
Excerpt: (§1) To allow for a broader and more complete interpretation of the results, a small paragraph will be devoted to the ability of FDP to cross the cellular membranes.

[3] = system: dogs anesthetized with Surital; test: analeptic effect of intra-carotid administration on Surital (thiamylal) anesthesia in dogs; assay type: in vivo, dog; settings: systemic administration
[4] = system: dogs anesthetized with Surital; test: as above; assay type: in vivo, dog; settings: for time required for return of observable eyelid reflex: after beginning the infusion into the carotid artery (±SDM); for time required to regain walking ability: mean, p<0.001 FDP vs dextrose; for Able To Sit / Able To Walk / Eyes Open / Lifts Head / Response To Pain: time after beginning of infusion, individual dogs
Protocol: In this paired test 10 dogs were anesthetized with Surital 35mg/kg IV. Within 10 minutes after induction of anesthesia, a #7 Sones catheter was placed in a common carotid artery via the femoral artery under fluoroscopic guidance. […] Immediately following the contrast media injection the infusion of FDP or glucose was initiated (9-13 min. after induction of anesthesia). The FDP was prepared as a 5% solution and infused at a constant rate of 1.91 ml/min. (97.5 mg/min.) into a main carotid artery. The controls received equal amounts of 5% dextrose via the same route. The analeptic effect of FDP on signs, stages and depth of anesthesia was evaluated by determining the time required for reappearance of eyelid reflex, opening of eyes, deglutiton, response to pain, lifting of the head, sitting, and when the animal was able to walk.

[5] = system: hearts of mongrel dogs subjected to normothermic arrest; test: global ischemia on cardiopulmonary bypass, normothermic arrest for one hour; assay type: in vivo, dog
Protocol: To evaluate the effect of FDP on global ischemia, 14 mongrel dogs were placed on cardiopulmonary bypass and their hearts were subjected to normothermic arrest for one hour. Seven animals had 50 ml. of 5% glucose in 0.9% NaCl infused into the base of the aorta at 0 minutes, 20 minutes and 40 minutes following cross-clamping and, systemically, during reperfusion. The remaining 7 animals were treated identically except that 50 mg. of FDP was given instead of glucose and 2mg/kg/minute was infused systemically during reperfusion. Hemodynamic measurements were taken before ischemia and at 15 and 30 minutes following reperfusion using an isovolumetric technique.

[6] = system: experimental animals and man; test: antishock activity in experimental animals and in man; settings: in vivo
[7] = tissue ATP, lactate, FDP and trioses after IV FDP; assay type: in vivo; settings: IV administration
Excerpt: as §1

[8] = system: dogs with acute regional myocardial ischemia; test: acute regional myocardial ischemia in dogs (coronary artery occlusion); assay type: in vivo, dog; settings: FIG. 3; ischemic and normally perfused myocardium
[9] = system: rabbit ileum; test: force of contraction of isolated rabbit ileum; settings: added to perfusate
Excerpt: as §1

[10] = system: dog WBC; test: carbohydrate metabolism of dog white blood cells in vitro; assay type: cell-based
Protocol: The tests were also conducted to investigate the effect of FDP on white blood cells (WBC) on metabolism in vitro. […] It was experimentally assessed whether FDP can stimulate the carbohydrate metabolism of these cells at rest. A similar phenomenon observed for normal human erythrocytes, sickle cells and dog erythrocytes. From healthy humans and dogs, the white blood cells were separated and incubated at 37° Celsius for various periods of time with FDP, glucose and normal saline. At the end of incubation, ATP and intermediates of the glycolytic pathway were assessed. […] The pyruvic acid concentration in dog WBC incubated with FDP was 10 times greater than those incubated in glucose while those for the human WBC, this difference was of much lesser degree (X2). The dihydroxyacetone (DHA) in the human and canine WBC was 5 to 10 times greater in the FDP incubated than in the glucose ones.

[11] = acute lethality in dogs; settings: dog, in vivo; administered 500 mg/min in dogs; approximately
Excerpt: From an energetic point of view the advantage of using FDP as the initial substrate is that the net yield of the anaerobic metabolism of one mole of glucose is 2 ATP, while if one mole of FDP is metabolized in the same conditions it will produce 4 ATP because there is no phosphorylation of glucose and fructose-6-phosphate, reactions which require utilization of ATP. On the other hand, while doubling the quantity of ATP produced, lactate production remains the same as though one mole of glucose had been metabolized. It is obvious that in order to obtain results in the direction of making usuable energy from FDP, it is necessary to administer a large quantity. (The LD50 of FDP when administered 500 mg/min in dogs is approximately 5.8-6 g/kg.)

[12] = FDP distribution after intracardiac administration in rat; assay type: in vivo; settings: 10 min after administration
Excerpt: as §1

[13] = system: whole blood; test: blood preservation: ATP content of refrigerated blood; design: species or system dog
Protocol: Blood specimens taken from a number of dogs were mixed with FDP in the following proportions: F1-25mg of FDP per 10ml of blood and F2-50mg of FDP per 10ml of blood. The same proportion was prepared with glucose: G1-25mg of glucose per 10ml of blood and G2-50mg of glucose per 10ml of blood. The blood specimens were refrigerated for 24 hours and then the blood was tested for ATP content after 24 hours 14 days.

[14] = plasma lactic acid after intravenous FDP in dogs; assay type: in vivo, dog
Excerpt: as §1

[15] = system: heart preparation; settings: infusion of Locke's solution plus sugar; cited from earlier work
[16] = 25 mg with 10ml of blood, 24 hours
[17] = 25 mg with 10ml of blood, 48 hours
[18] = 50 mg with 10ml of blood, 24 hours
[19] = 50 mg with 10ml of blood, 48 hours
[20] = 100 mg with 10ml of blood, 24 hours
[21] = 100 mg with 10ml of blood, 48 hours
[22] = 25mg per 10ml of blood, 24 hours
[23] = 25mg per 10ml of blood, 48 hours
[24] = 25mg per 10ml of blood, 7 days, Incubate 30' 37°
[25] = 50mg per 10ml of blood, 24 hours
[26] = 50mg per 10ml of blood, 48 hours
[27] = 50mg per 10ml of blood, 7 days, Incubate 30' 37°
[28] = 5 g of FDP IV over 10 min, at one hour

Structure (SMILES): O=C(COP(=O)(O)O)[C@@H](O)[C@H](O)[C@H](O)COP(=O)(O)O [FDP, fructose-1,6-diphosphate]
- ATP [1, 16]: 1.67 m mole/ml
- ATP [1, 17]: 1.92 m mole/ml
- ATP [1, 18]: 2.2 m mole/ml
- ATP [1, 19]: 2.85 m mole/ml
- ATP [1, 20]: 2.82 m mole/ml
- ATP [1, 21]: 3.40 m mole/ml
- ATP and 2-3 DPG in the erythrocytes [2]: substantial increase of ATP and 2-3 DPG in the erythrocytes
- ATP and 2-3 DPG content in erythrocytes ([2]; 5% FDP): large increase in their ATP and 2-3 DPG content
- analeptic effect [3]: The same analeptic effect, but to a much lesser degree
- time required for return of observable eyelid reflex [4]: 3.70 ± 0.67 min
- time to regain consciousness and be able to walk (in words) ([4]; intra-carotid administration): greatly reduces the time required for the animal to regain consciousness and be able to walk
- time required to regain walking ability [4]: 76.6 ± 16 min
- Able To Sit [4]: 48 min and 47 min and 35 min and 52 min and 40 min
- Able To Walk [4]: 60 min and 70 min and 50 min and 95 min and 82 min
- Eyes Open [4]: 7 min and 14 min and 5 min and 12 min and 4 min
- Lifts Head [4]: 28 min and 33 min and 14 min and 19 min and 20 min
- Response To Pain [4]: 17 min and 19 min and 10 min and 18 min and 15 min
- ML to LVEDP of 20 mmHg ([5]; 15 minutes after reperfusion): 33.6 ± 3.7 mL
- Peak Effective pressure ([5]; 15 minutes after reperfusion): 102.1 ± 11.5 mmHg
- Peak Mean pressure ([5]; 15 minutes after reperfusion): 52.8 ± 5.4 mmHg
- Peak dp/dt ([5]; 15 minutes after reperfusion): 2242 ± 226 mmHg/sec
- ML to LVEDP of 20 mmHg ([5]; 30 minutes after reperfusion): 36.1 ± 3.3 mL
- Peak Effective pressure ([5]; 30 minutes after reperfusion): 125 ± 11.5 mmHg
- Peak Mean pressure ([5]; 30 minutes after reperfusion): 61.4 ± 5.1 mmHg
- Peak dp/dt ([5]; 30 minutes after reperfusion): 3999 ± 404 mmHg/sec
- contractility and compliance during recovery ([5]; Intra-aortic and systemic administration): Both contractility and compliance are vastly improved
- ML to LVEDP of 20 mmHg ([5]; Pre-Ischemia): 39.3 ± 3.2 mL
- Peak Effective pressure ([5]; Pre-Ischemia): 165 ± 12.9 mmHg
- Peak Mean pressure ([5]; Pre-Ischemia): 77.5 ± 4.6 mmHg
- Peak dp/dt ([5]; Pre-Ischemia): 4710 ± 689 mmHg/sec
- antishock activity [6]: profound antishock activity in experimental animals and in man
- ATP, lactate, and FDP in tissues [7]: increase of ATP, lactate, and FDP in all tissues that we have studied
- trioses in the Embden-Meyerhof pathway [7]: increases in the trioses
- ATP and CP content in the myocardium [8]: increase of ATP and CP in ischemic myocardium, but also in the normally perfused heart muscle
- tissue lactic acid concentration [8]: The same phenomenon was observed for the tissue lactic acid concentration
- force of contraction [9]: increases the force of contraction
- effect on carbohydrate metabolism [10]: profound stimulating effect on the carbohydrate metabolism
- concentration dependence of ATP production ([10]; 5 to 50 mg/ml FDP, no AMP or ADP): independent of the concentration (from 5 to 50 mg/ml), but rather a function of the incubation time
- concentration dependence of ATP increase ([10]; AMP or ADP added): the increase of ATP becomes a function of the FDP concentration
- pyruvic acid concentration, FDP versus glucose ([10]; dog WBC): 10 times
- LD50 [11]: 5800 to 6000 mg/kg
- concentration of FDP in the liver versus plasma [12]: five
- ATP [13, 22]: 2.32 m mole/ml
- ATP [13, 23]: 2.34 m mole/ml
- ATP [13, 24]: 0.70 m mole/ml
- ATP ([13]; 25mg per 10ml of blood, 9 days): 0.82 m mole/ml
- ATP [13, 25]: 3.34 m mole/ml
- ATP [13, 26]: 2.08 m mole/ml
- ATP [13, 27]: 2.16 m mole/ml
- ATP ([13]; 50mg per 10ml of blood, 9 days): 2.04 m mole/ml
- ATP ([13]; 14 days, Incubate 40' 37°): 1.3 m mole/ml
- ATP ([13]; 14 days, No incubation): 1.22 m mole/ml
- plasma lactic acid [14, 28]: 16.45±2.16 mg %
- plasma lactic acid increase [14, 28]: 21/2
- plasma lactic acid ([14]; before FDP (baseline)): 6.13±1.7 mg %

Structure (SMILES): O=C[C@H](O)[C@@H](O)[C@H](O)[C@H](O)CO [glucose, reference compound]
- ATP [1, 16]: 0.475 m mole/ml
- ATP [1, 17]: 0.475 m mole/ml
- ATP [1, 18]: 0.375 m mole/ml
- ATP [1, 19]: 0.450 m mole/ml
- ATP [1, 20]: 0.250 m mole/ml
- ATP [1, 21]: 0.426 m mole/ml
- ATP content in the erythrocytes ([2]; equimolar, same conditions): failed to increase the ATP content
- time required for return of observable eyelid reflex [4]: 70.00 ± 25 min
- time required to regain walking ability [4]: 295.00 ± 24.49 min
- Able To Sit [4]: 300 min and 225 min and 310 min and 215 min
- Able To Walk [4]: 310 min and 300 min and 330 min and 280 min and 265 min
- Eyes Open [4]: 80 min and 75 min and 105 min and 54 min and 40 min
- Lifts Head [4]: 170 min and 135 min and 190 min and 165 min and 120 min
- Response To Pain [4]: 120 min and 130 min and 160 min and 125 min and 100 min
- amplitude and frequency of heart beats, lactic acid, pH and potassium during recovery [15]: no significant difference
- ML to LVEDP of 20 mmHg ([5]; 15 minutes after reperfusion): 23.3 ± 1.8 mL
- Peak Effective pressure ([5]; 15 minutes after reperfusion): 36.9 ± 4.4 mmHg
- Peak Mean pressure ([5]; 15 minutes after reperfusion): 17.8 ± 4.2 mmHg
- Peak dp/dt ([5]; 15 minutes after reperfusion): 1126 ± 216 mmHg/sec
- ML to LVEDP of 20 mmHg ([5]; 30 minutes after reperfusion): 19.3 ± 1.3 mL
- Peak Effective pressure ([5]; 30 minutes after reperfusion): 50.8 ± 6.3 mmHg
- Peak Mean pressure ([5]; 30 minutes after reperfusion): 20.5 ± 2.9 mmHg
- Peak dp/dt ([5]; 30 minutes after reperfusion): 1698 ± 350 mmHg/sec
- ML to LVEDP of 20 mmHg ([5]; Pre-Ischemia): 51.4 ± 8.6 mL
- Peak Effective pressure ([5]; Pre-Ischemia): 144.6 ± 14.6 mmHg
- Peak Mean pressure ([5]; Pre-Ischemia): 66.4 ± 7.4 mmHg
- Peak dp/dt ([5]; Pre-Ischemia): 4894 ± 689 mmHg/sec
- ATP [13, 22]: 0.22 m mole/ml
- ATP [13, 23]: 0.32 m mole/ml
- ATP [13, 24]: 0.28 m mole/ml
- ATP ([13]; 25mg per 10ml of blood, 9 days): 0.26 m mole/ml
- ATP [13, 25]: 0.44 m mole/ml
- ATP [13, 26]: 0.34 m mole/ml
- ATP [13, 27]: 0.18 m mole/ml
- ATP ([13]; 50mg per 10ml of blood, 9 days): 0.40 m mole/ml
- ATP ([13]; 14 days, Incubate 40' 37°): 0.88 m mole/ml
- ATP ([13]; 14 days, No incubation): 0.40 m mole/ml
